# Measurements: US10888544B2, “Methods for treating Gaucher disease” (Genzyme Corporation, priority 2017, dated 2021)
# Key:
# [1] = Safety evaluation in the hepatic impairment single dose study (Example 1); format: in vivo, human
# Protocol: The safety evaluation was based upon the review of the individual values (clinically significant abnormalities) and descriptive statistics (summary tables). All safety analyses were performed using the safety population and were based on the on-treatment phase (defined as the time from investigational medicinal product [IMP] administration up to Day 3 visit, inclusive). For laboratory, vital signs, and ECG data, potentially clinically significant abnormalities (PCSAs) were analyzed using the 24 May 2014 version of the PCSA list. Electrocardiogram parameters were obtained from automatic reading of 12-lead ECGs and were analyzed as raw parameter values and change from baseline. For vital signs, raw data and changes from baseline were summarized using descriptive statistics by population group and time point. All individual data for biochemistry, hematology, and qualitative urinary tests were listed.
# Adverse events were coded according to the Medical Dictionary for Regulatory Activities (MedDRA v.19.1) and classified into predefined standard categories according to chronological criteria: • Pretreatment adverse events (AEs), defined as AEs that occurred, worsened (according to Investigator opinion), or became serious during the pretreatment phase (defined as the time between the signature of the informed consent and IMP administration [excluded]); • Treatment-emergent AEs (TEAEs), defined as AEs that occurred, worsened, or became serious during the on-treatment phase; • Posttreatment AEs, defined as AEs that occurred, worsened, or became serious during the posttreatment phase (defined as the time after Day 3 visit through completion of EOS).
# All AEs reported in the study were listed and sorted by subject, onset date and time. The number and percentage of subjects with TEAEs were listed by population group, primary system-organ class (SOC), preferred term (PT), and AE diagnosis.
# [2] = Safety evaluation in the renal impairment single dose study (Example 3); format: in vivo, human
# Protocol: The safety evaluation was based on the review of the individual values (clinically significant abnormalities) and descriptive statistics (summary tables). All safety analyses were performed using the safety population and based on the on-treatment phase (defined as the start time of investigational medicinal product [IMP] administration up to Day 3 visit). For laboratory, vital sign, and ECG data, the Potentially Clinically Significant Abnormalities (PCSAs) were analyzed using PCSA list (Version 3.0, 24 May 2014). Electrocardiogram parameters were obtained from automatic reading of the 12-lead ECGs and were analyzed as raw parameter value and change from baseline. For vital signs, raw data and changes from baseline were summarized using descriptive statistics by population group and time of measurement. All individual data for biochemistry, hematology, and qualitative urinary tests were listed.
# Vital signs and ECG readings were analyzed as raw parameter value and change from baseline.
# Adverse events were coded according to the Medical Dictionary for Regulatory Activities (MedDRA, version 19.1). They were classified into pre-defined standard categories according to chronological criteria: • Pretreatment adverse events: AEs that occurred, worsened (according to the Investigator's opinion) or became serious during the pretreatment phase (defined as the time between the signature of the informed consent and IMP administration [excluded]); • Treatment-emergent adverse events (TEAEs): AEs that occurred, worsened or became serious during the on-treatment phase; • Posttreatment adverse events: AEs that occurred, worsened or became serious during the posttreatment phase (defined as starting after the Day 3 visit and ending with EOS).
# The number and percentage of subjects with TEAEs were listed by population group, primary system-organ class (SOC), preferred term (PT), and AE diagnosis.
# [3] = hepatic impairment study, single dose
# [4] = renal impairment study, single dose
smiles,measurement,setting,value
"CCCCCCCC(=O)N[C@H](CN1CCCC1)[C@H](O)c1ccc2c(c1)OCCO2 [eliglustat, N-((1R,2R)-1-(2,3-dihydrobenzo[b][1,4]dioxin-6-yl)-1-hydroxy-3-(pyrrolidin-1-yl)propan-2-yl)octanamide]",Total number of mild TEAEs observed,"[1]; all groups (healthy, mild HI, moderate HI), in 5 subjects, single dose",6
same,Deaths or other significant AEs,[1]; [3],no deaths or other significant AEs
same,Serious adverse events,[1]; [3],No serious adverse events were reported
same,"Treatment emergent PCSA (laboratory values, vital signs, ECGs)",[1]; [3],no treatment emergent PCSA that were clinically relevant
same,TEAEs considered related to study drug by the investigator,"[1]; in 3 subjects: dysgeusia in 2 moderate HI subjects, nausea and headache in 1 healthy subject",Four
same,Total number of mild TEAEs observed,"[2]; in 1 subject, considered related to study drug: fatigue in a healthy subject",one
same,Deaths or withdrawals due to AEs,[2]; [4],no deaths or withdrawals due to AEs
same,Serious adverse events,[2]; [4],No serious adverse events were reported
same,"Treatment emergent PCSA (laboratory values, vital signs, ECGs)",[2]; [4],no treatment emergent PCSA that were clinically relevant
